The results in this text go back to patent publication US20210070748A1, “INHIBITORS OF BRUTONS TYROSINE KINASE” (Pharmacyclics LLC, priority 2015, published 2021).

pIC50: −log10 of the molar value. Bounds are passed on as bounds.

What all share (type): biochemical
The target in one assay is T1, JAK3 (Homo sapiens, UniProt P52333).
T1 sequence (P52333 1-1124): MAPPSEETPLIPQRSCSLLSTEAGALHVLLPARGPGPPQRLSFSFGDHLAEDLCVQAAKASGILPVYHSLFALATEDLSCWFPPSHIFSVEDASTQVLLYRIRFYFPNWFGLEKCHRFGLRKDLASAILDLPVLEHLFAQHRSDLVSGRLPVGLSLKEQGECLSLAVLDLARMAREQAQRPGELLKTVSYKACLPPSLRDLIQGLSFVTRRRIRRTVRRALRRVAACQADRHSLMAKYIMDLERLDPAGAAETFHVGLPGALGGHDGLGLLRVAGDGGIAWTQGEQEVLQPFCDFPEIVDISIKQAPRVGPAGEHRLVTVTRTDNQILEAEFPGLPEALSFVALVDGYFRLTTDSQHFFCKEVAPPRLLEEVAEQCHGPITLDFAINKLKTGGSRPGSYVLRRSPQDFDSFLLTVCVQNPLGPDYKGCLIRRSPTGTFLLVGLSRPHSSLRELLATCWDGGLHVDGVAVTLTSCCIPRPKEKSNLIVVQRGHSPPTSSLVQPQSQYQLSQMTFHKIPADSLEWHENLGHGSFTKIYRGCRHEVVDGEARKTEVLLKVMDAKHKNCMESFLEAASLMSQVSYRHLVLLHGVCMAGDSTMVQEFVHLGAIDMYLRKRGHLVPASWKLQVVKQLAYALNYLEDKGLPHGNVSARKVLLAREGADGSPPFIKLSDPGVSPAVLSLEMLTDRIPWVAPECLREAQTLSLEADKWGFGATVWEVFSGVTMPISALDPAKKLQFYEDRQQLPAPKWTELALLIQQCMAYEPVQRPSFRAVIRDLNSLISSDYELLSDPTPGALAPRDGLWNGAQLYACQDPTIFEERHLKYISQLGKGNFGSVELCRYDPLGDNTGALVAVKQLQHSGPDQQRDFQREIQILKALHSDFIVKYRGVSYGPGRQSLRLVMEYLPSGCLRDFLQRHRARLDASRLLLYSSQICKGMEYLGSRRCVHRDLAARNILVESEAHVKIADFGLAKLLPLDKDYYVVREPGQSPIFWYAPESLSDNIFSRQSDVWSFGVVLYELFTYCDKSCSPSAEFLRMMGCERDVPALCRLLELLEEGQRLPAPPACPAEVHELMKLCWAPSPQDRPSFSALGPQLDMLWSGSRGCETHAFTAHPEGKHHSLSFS
Nature of the assay: Inhibition of a panel of kinases, in vitro HotSpot kinase assay: JAK3. The note with it: Table 15, C compounds; 1 μM ATP; read-out: IC50 JAK3.

In another assay the target is SRC (Homo sapiens, UniProt P12931). Nature of the assay: Inhibition of a panel of kinases, in vitro HotSpot kinase assay: SRC. The following applies: Table 15, C compounds; 1 μM ATP. On the procedure: (§1) The degree of inhibition of a panel of kinases is determined using the in vitro HotSpot kinase assay (purified enzymes, ^33P-ATP, an appropriate substrate and 1 μM ATP).
Sequence of SRC (P12931 whole entry): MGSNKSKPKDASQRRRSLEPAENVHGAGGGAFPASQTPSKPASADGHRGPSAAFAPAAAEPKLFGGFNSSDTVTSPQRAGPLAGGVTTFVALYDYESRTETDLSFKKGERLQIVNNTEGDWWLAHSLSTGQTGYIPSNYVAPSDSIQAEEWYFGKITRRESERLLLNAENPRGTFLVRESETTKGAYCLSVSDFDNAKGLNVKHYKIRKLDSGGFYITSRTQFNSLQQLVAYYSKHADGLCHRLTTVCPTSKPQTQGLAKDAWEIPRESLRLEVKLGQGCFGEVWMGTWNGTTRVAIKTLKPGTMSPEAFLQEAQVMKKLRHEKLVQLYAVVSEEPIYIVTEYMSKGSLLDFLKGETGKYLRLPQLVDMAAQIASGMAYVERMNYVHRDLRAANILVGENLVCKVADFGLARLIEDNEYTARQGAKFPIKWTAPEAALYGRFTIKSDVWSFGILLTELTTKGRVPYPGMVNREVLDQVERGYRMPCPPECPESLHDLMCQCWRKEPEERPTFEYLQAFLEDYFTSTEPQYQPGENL

For the next assay, the target named is T2, TXK (Homo sapiens, UniProt P42681).
T2 sequence (P42681 1-527): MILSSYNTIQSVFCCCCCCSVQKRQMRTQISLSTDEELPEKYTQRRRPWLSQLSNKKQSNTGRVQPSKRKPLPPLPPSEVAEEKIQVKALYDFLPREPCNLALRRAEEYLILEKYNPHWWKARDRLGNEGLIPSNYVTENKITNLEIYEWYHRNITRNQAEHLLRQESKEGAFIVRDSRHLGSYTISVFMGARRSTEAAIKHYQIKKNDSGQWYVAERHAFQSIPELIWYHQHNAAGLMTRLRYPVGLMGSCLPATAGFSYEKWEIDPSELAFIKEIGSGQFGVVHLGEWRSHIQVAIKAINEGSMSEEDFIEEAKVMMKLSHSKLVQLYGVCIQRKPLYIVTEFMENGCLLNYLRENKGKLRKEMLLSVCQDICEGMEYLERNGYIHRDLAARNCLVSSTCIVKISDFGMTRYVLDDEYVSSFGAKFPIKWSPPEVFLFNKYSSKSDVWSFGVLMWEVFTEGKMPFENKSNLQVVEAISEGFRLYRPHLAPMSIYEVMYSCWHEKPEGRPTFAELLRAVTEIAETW
Nature of the assay: Inhibition of a panel of kinases, in vitro HotSpot kinase assay: TXK. The following applies: Table 15, C compounds; 1 μM ATP. On the procedure: as §1

The pIC50 is −log10 of the IC50, conventionally taken in molar units.

For `C=CC(=O)N1CCC[C@@H](Nc2cnc(C(N)=O)c(Nc3ccc(C4CCN(C5CCCC5)CC4)cc3)n2)C1` [Example C-84, (R)-5-(1-acryloylpiperidin-3-ylamino)-3-(4-(1-cyclopentylpiperidin-4-yl)phenylamino)pyrazine-2-carboxamide], the pIC50 at JAK3 was above 8.00; on SRC, 7.00 to 8.00; at TXK, at least 8.00.
The like results for `C=CC(=O)N1CC[C@@H](N(C)c2cnc(C(N)=O)c(Nc3ccc(C4CCN(C5CCCC5)CC4)cc3)n2)C1` [Example C-85, (R)-5-((1-acryloylpyrrolidin-3-yl)(methyl)amino)-3-(4-(1-cyclopentylpiperidin-4-yl)phenylamino) pyrazine-2-carboxamide] were, in that order, above 8.00, 7.00 to 8.00 and at least 8.00.
The like results for `C=CC(=O)N1CCC[C@@H](Nc2nnc(C(N)=O)c(Nc3cc(C)ns3)n2)C1` [Example C-56, (R)-3-(1-acryloylpiperidin-3-ylamino)-5-(3-methylisothiazol-5-ylamino)-1,2,4-triazine-6-carboxamide] were, in that order, above 8.00, 7.00 to 8.00 and at least 8.00.
For `C=CC(=O)N1CCC[C@@H](Nc2nnc(C(N)=O)c(Nc3ccc(C4CCN(C(=O)CC)CC4)cc3)n2)C1` [Example C-57, (R)-3-(1-acryloylpiperidin-3-ylamino)-5-(4-(1-propionylpiperidin-4-yl)phenylamino)-1,2,4-triazine-6-carboxamide], the pIC50 at JAK3 was above 8.00; at SRC, 7.00 to 8.00; against TXK it was at least 8.00.
